In patent US12624024B2, “EP2 antagonist compounds” (Reservoir Neuroscience, Inc., priority 2021, dated 2026) one finds IC50 data, which are given here for 54 molecules.

pIC50: −log10 of the molar value.

T1 sequence (P43116 whole entry): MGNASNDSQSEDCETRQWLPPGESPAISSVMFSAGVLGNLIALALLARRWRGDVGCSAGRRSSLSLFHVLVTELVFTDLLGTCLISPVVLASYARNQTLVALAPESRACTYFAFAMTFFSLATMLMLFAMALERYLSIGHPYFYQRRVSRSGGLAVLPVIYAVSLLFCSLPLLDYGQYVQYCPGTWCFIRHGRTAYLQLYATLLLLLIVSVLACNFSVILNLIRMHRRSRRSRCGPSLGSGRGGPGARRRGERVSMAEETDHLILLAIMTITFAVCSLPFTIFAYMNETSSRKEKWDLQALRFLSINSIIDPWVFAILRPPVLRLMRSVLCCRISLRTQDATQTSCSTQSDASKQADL

The experiment concerns the target T1, EP2 receptor (Homo sapiens, UniProt P43116).
T1 construct: expressed in transfected cells; host or cells: CHO-K1 cells (ATCC), transient transfection with FuGENE 6
Description: EP2 Potency Assay (cAMP TR-FRET, CHO-K1 cells transfected with EP2 receptor, PGE2 at EC80). In kind it is cell-based. As to conditions: CHO-K1 cells expressing EP2, prostaglandin E2 at EC80, read-out: EP2 Potency (IC50 category). As to the method: Compound potency was measured using a cAMP TR-FRET assay.
After 6 hours incubation, the cell media was replaced with F12 medium supplemented with 10% FBS and 100 U/ml Pen-Strep. 24 hours after transfection, cells were harvested and seeded at a density of 3000 cells/well in a 384 well plate to perform the cAMP assay, using the LANCE Ultra cAMP assay kit (PerkinElmer).
Plates were then centrifuged at 1000 rpm for 1 min, agitated at 600 rpm at R.T. for 2 min, and incubated at 25° C. for 5 min. The reference agonist, prostaglandin E2 (MCE), was added to each well at the appropriate concentration to reach its EC80 value. Plates were then centrifuged at 1000 rpm for 1 min, agitated at 600 rpm at R.T. for 2 min, and incubated at 25° C. for 30 min.
A dose-response curve was prepared by plotting percent inhibition for each compound concentration, and then IC50 was calculated by fitting a curve to the plotted values and extrapolating the IC50 concentration.
The term pIC50 denotes −log10 of the IC50, conventionally taken in molar units. Turning to `Fc1ccc2c(ccn2-c2cc(Cl)c3c(c2)CN(Cc2nnc[nH]2)CCO3)c1` [Compound 109, 9-chloro-7-(5-fluoroindol-1-yl)-4-(4H-1,2,4-triazol-3-ylmethyl)-3,5-dihydro-2H-1,4-benzoxazepine], the pIC50 was below 5.30.

Take `COc1ncc(CN2CCOc3c(Cl)cc(-n4cc(Cl)c5cc(F)ccc54)cc3C2)cn1` [Compound 27]: the pIC50 is 6.00 to 6.30.

In the case of `O=C1NN=CC1CN1CCOc2c(Cl)cc(-n3ccc4cc(F)ccc43)cc2C1` (stereo not drawn) [Compound 199], the pIC50 was 5.30 to 6.00.

Consider `O=c1ncc(CN2CCOc3c(Cl)cc(-c4cccc5nccn45)cc3C2)c[nH]1` [Compound 74], for which the pIC50 was 5.30 to 6.00.

As for `Fc1ccc2c(ccn2-c2cc(Cl)c3c(c2)CN(Cc2cccs2)CCO3)c1` [Compound 91], the pIC50 is below 5.30.

With `CC(C)(C)OC(=O)n1cccc1CN1CCOc2c(Cl)cc(-n3ccc4cc(F)ccc43)cc2C1` [Compound 88], the pIC50 is below 5.30.

Take `O=c1cc(CN2Cc3cc(-n4ccc5cc(F)ccc54)cc(Cl)c3OCC2C2CC2)cc[nH]1` (stereo not drawn) [Compound 231]: the pIC50 was below 5.30.

For the molecule `O=c1ncc(CN2CCOc3c(Cl)cc(N4CCCc5cc(F)ccc54)cc3C2)c[nH]1` [Compound 80], the pIC50 was 5.30 to 6.00.

Consider `O=c1ncc(CN2CCOc3c(Cl)cc(N4CCc5cc(F)ccc54)cc3C2)c[nH]1` [Compound 78], for which the pIC50 is 6.30 to 7.00.

On to `Nc1nccc(CN2CCOc3c(Cl)cc(-n4ccc5cc(F)ccc54)cc3C2)n1` [Compound 163, 4-{[9-chloro-7-(5-fluoroindol-1-yl)-3,5-dihydro-2H-1,4-benzoxazepin-4-yl]methyl}pyrimidin-2-amine], for which the pIC50 was 5.30 to 6.00.

As to `O=c1cc(CN2Cc3cc(-n4ccc5cc(F)ccc54)cc(Cl)c3OCC23COC3)cc[nH]1` [Compound 229], the pIC50 was below 5.30.

Consider `Fc1ccc2c(ccn2-c2cc(Cl)c3c(c2)CN(Cc2nncs2)CCO3)c1` [Compound 112], for which the negative-log IC50 (pIC50) is 5.30 to 6.00.

As to `COc1ncc(CN2CCOc3c(Cl)cc(N4CCS(=O)(=O)c5ccccc54)cc3C2)cn1` [Compound 53], the pIC50 was below 5.30.

As for `COc1n[nH]cc1CN1CCOc2c(Cl)cc(-n3ccc4cc(F)ccc43)cc2C1` [Compound 105, 9-chloro-7-(5-fluoroindol-1-yl)-4-[(3-methoxy-1H-pyrazol-4-yl)methyl]-3,5-dihydro-2H-1,4-benzoxazepine], the pIC50 was below 5.30.

As to `O=c1ncc(CN2CCOc3c(Cl)cc(-n4ccc5c(F)c(Cl)ccc54)cc3C2)c[nH]1` [Compound 65], the pIC50 was 6.00 to 6.30.

Consider `O=c1cc(CN2CCOc3c(Cl)cc(-n4ccc5cc(F)ccc54)cc32)cc[nH]1` [Compound 241], for which the pIC50 was below 5.30.

`O=c1ncc(CN2CCOc3c(Cl)cc(-n4ccc5cc(C(F)(F)F)ccc54)cc3C2)c[nH]1` [Compound 60]: the pIC50 is 5.30 to 6.00.

Regarding `COC(=O)[C@H]1CC[C@H](CN2CCOc3c(Cl)cc(-n4ccc5cc(F)ccc54)cc3C2)CC1` [Compound 133], the pIC50 is below 5.30.

`COc1ncc(CN2CCOc3c(Cl)cc(N4CCCc5cc(F)ccc54)cc3C2)cn1` [Compound 49, 9-chloro-7-(6-fluoro-3,4-dihydroquinolin-1(2H)-yl)-4-((2-methoxypyrimidin-5-yl)methyl)-2,3,4,5-tetrahydrobenzo[f][1,4]oxazepine]: the pIC50 was below 5.30.

With `[2H]C1([2H])c2cc(-n3ccc4cc(F)ccc43)cc(Cl)c2OC([2H])([2H])C([2H])([2H])N1Cc1cc[nH]c(=O)c1` [Compound 225], the pIC50 was 6.30 to 7.00.

Take `CN(C)C(=O)[C@H]1CC[C@H](CN2CCOc3c(Cl)cc(-n4ccc5cc(F)ccc54)cc3C2)CC1` [Compound 130]: the pIC50 was 5.30 to 6.00.

Regarding `O=c1ncc(CN2CCOc3c(Cl)cc(-n4ccc5cnccc54)cc3C2)c[nH]1` [Compound 73], the negative-log IC50 (pIC50) was below 5.30.

Turning to `Fc1ccc2c(ccn2-c2cc(Cl)c3c(c2)CN(Cc2ccnc(NC4COC4)c2)CCO3)c1` [Compound 182, 4-{[9-chloro-7-(5-fluoroindol-1-yl)-3,5-dihydro-2H-1,4-benzoxazepin-4-yl]methyl}-N-(oxetan-3-yl)pyridin-2-amine], the pIC50 is 5.30 to 6.00.

With `Fc1ccc2c(ccn2-c2cc(Cl)c3c(c2)CN(Cc2ncon2)CCO3)c1` [Compound 110], the pIC50 is below 5.30.

On to `Oc1ccccc1CN1CCOc2c(Cl)cc(-n3ccc4cc(F)ccc43)cc2C1` [Compound 119], for which the pIC50 was below 5.30.

Consider `Fc1ccc2c(ccn2-c2cc(Cl)c3c(c2)CN(Cc2cccnn2)CCO3)c1` [Compound 166], for which the pIC50 is 6.00 to 6.30.

Consider `O=c1[nH]ccc(CN2CCOc3c(Cl)cc(-n4ccc5cc(F)ccc54)cc3C2)c1C(F)(F)F` [Compound 195], for which the negative-log IC50 (pIC50) was below 5.30.

With `O=c1cc[nH]cc1CN1CCOc2c(Cl)cc(-n3ccc4cc(F)ccc43)cc2C1` [Compound 176], the pIC50 was 5.30 to 6.00.

`O=c1cc(CN2Cc3cc(-n4ccc5cc(F)ccc54)cc(Cl)c3OCC23CC3)cc[nH]1` [Compound 230]: the pIC50 was below 5.30.

As for `O=c1ncc(CN2CCOc3c(Cl)cc(-n4ccc5ncccc54)cc3C2)c[nH]1` [Compound 68], the pIC50 was 6.00 to 6.30.

Take `CNC(=O)[C@H]1CC[C@H](CN2CCOc3c(Cl)cc(-n4ccc5cc(F)ccc54)cc3C2)CC1` [Compound 127, trans-4-{[9-chloro-7-(5-fluoroindol-1-yl)-3,5-dihydro-2H-1,4-benzoxazepin-4-yl]methyl}-N-methylcyclohexane-1-carboxamide]: the pIC50 is 6.00 to 6.30.

As to `Fc1ccc2c(ccn2-c2cc(Cl)c3c(c2)CN(Cc2cc[nH]c2)CCO3)c1` [Compound 86], the pIC50 is below 5.30.

For `Fc1ccc2c(ccn2-c2cc(Cl)c3c(c2)CN(Cc2ccoc2)CCO3)c1` [Compound 90], the pIC50 was below 5.30.

As to `O=C(O)[C@H]1CC[C@@H](CN2CCOc3c(Cl)cc(-n4ccc5cc(F)ccc54)cc3C2)CC1` [Compound 132, cis-4-{[9-chloro-7-(5-fluoroindol-1-yl)-3,5-dihydro-2H-1,4-benzoxazepin-4-yl]methyl}cyclohexane-1-carboxylic acid], the pIC50 was 5.30 to 6.00.

As to `O=c1ncc(CN2CCOc3c(Cl)cc(-c4cccc5ccccc45)cc3C2)c[nH]1` [Compound 82], the pIC50 was 5.30 to 6.00.

For `COc1ncc(CN2CCOc3c(Cl)cc(-n4ccc5cc(C)ccc54)cc3C2)cn1` [Compound 14], the pIC50 is 6.00 to 6.30.

As to `Fc1ccc2c(ccn2-c2cc(Cl)c3c(c2)CN(Cc2cnc[nH]2)CCO3)c1` [Compound 107], the pIC50 is below 5.30.

For `Fc1ccc2c(ccn2-c2cc(Cl)c3c(c2)CN(Cc2cnsc2)CCO3)c1` [Compound 96], the pIC50 is 5.30 to 6.00.

Regarding `COc1ncc(CN2CCOc3c(Cl)cc(-c4cccc5ccccc45)cc3C2)cn1` [Compound 54], the pIC50 is 5.30 to 6.00.

Turning to `COc1ncc(CN2CCOc3c(Cl)cc(-n4ccc5nccnc54)cc3C2)cn1` [Compound 43], the pIC50 is below 5.30.

Take `Fc1ccc2c(ccn2-c2cc(Cl)c3c(c2)CN(Cc2cocn2)CCO3)c1` [Compound 95]: the pIC50 was below 5.30.

As for `Fc1ccc2c(ccn2-c2cc(Cl)c3c(c2)CN(Cc2ccno2)CCO3)c1` [Compound 94], the pIC50 was 5.30 to 6.00.

`O=c1ncc(CN2CCOc3c(Cl)cc(-n4ccc5c(F)c(F)ccc54)cc3C2)c[nH]1` [Compound 64]: the pIC50 is above 7.00.

In the case of `Oc1cccc(CN2CCOc3c(Cl)cc(-n4ccc5cc(F)ccc54)cc3C2)c1` [Compound 120], the pIC50 was below 5.30.

As for `C[C@@H]1c2cc(-n3ccc4cc(F)ccc43)cc(Cl)c2OCCN1Cc1cc[nH]c(=O)c1` (single isomer, unassigned) [Compound 236], the pIC50 is below 5.30.

`COc1ncc(CN2CCOc3c(Cl)cc(-n4ccc5cccnc54)cc3C2)cn1` [Compound 32]: the pIC50 is 5.30 to 6.00.

With `COc1ncc(CN2CCOc3c(Cl)cc(N4CCc5cc(F)ccc54)cc3C2)cn1` [Compound 45, 9-chloro-7-(5-fluoro-2,3-dihydroindol-1-yl)-4-[(2-methoxypyrimidin-5-yl)methyl]-3,5-dihydro-2H-1,4-benzoxazepine], the pIC50 was 6.00 to 6.30.

For the molecule `COC(=O)c1ncc(CN2CCOc3c(Cl)cc(-n4ccc5cc(F)ccc54)cc3C2)cn1` [Compound 145, Methyl 5-{[9-chloro-7-(5-fluoroindol-1-yl)-3,5-dihydro-2H-1,4-benzoxazepin-4-yl]methyl}pyrimidine-2-carboxylate], the pIC50 is above 7.00.

On to `COc1ncc(CN2CCOc3c(Cl)cc(-c4cccc5c4OCCO5)cc3C2)cn1` [Compound 57], for which the pIC50 was below 5.30.

For the molecule `Fc1ccc2c(ccn2-c2cc(Cl)c3c(c2)CN(Cc2ccnc(NC4COC4)n2)CCO3)c1` [Compound 162, 4-{[9-chloro-7-(5-fluoroindol-1-yl)-3,5-dihydro-2H-1,4-benzoxazepin-4-yl]methyl}-N-(oxetan-3-yl)pyrimidin-2-amine], the pIC50 is 5.30 to 6.00.

With `Fc1ccc2c(ccn2-c2cc(Cl)c3c(c2)CN(Cc2nsc(Cl)n2)CCO3)c1` [Compound 115, 9-chloro-4-[(5-chloro-1,2,4-thiadiazol-3-yl)methyl]-7-(5-fluoroindol-1-yl)-3,5-dihydro-2H-1,4-benzoxazepine], the pIC50 is below 5.30.

Regarding `CC(C)(C)OC(=O)Nc1cnc(CN2CCOc3c(Cl)cc(-n4ccc5cc(F)ccc54)cc3C2)cn1` [Compound 171], the pIC50 was below 5.30.

As for `COc1ncc(CN2CCOc3c(Cl)cc(-n4ccc5cc(Cl)ncc54)cc3C2)cn1` [Compound 35], the pIC50 was below 5.30.

With `COc1nccc(CN2CCOc3c(Cl)cc(-n4ccc5cc(F)ccc54)cc3C2)n1` [Compound 161], the pIC50 was 6.00 to 6.30.
